Results on two compounds are retold here after PubChem BioAssay AID720699 (NMMLSC, 2013).

The nature of this experiment: incubation effect on Rab7 inhibitor curves, late-stage follow-up, mechanism study, biochemical, Rab7 wildtype, bead flow cytometry, two incubation protocols (AID 720699). Particulars: Rab7 beads, Bodipy-FL-GTP binding. Background: A flow cytometer gives signals particle by particle.

The EC50 is the concentration at which the effect is half-maximal. Take `CC1(C)Cc2c(sc(NC(=S)NC(=O)c3ccc(N=[N+]=[N-])cc3)c2C(=O)O)CO1`: the EC50 runs as follows: (protocol A) 219 nM; (protocol B) 172 nM.

Turning to `CC1(C)Cc2c(sc(NC(=S)NC(=O)c3cccc(N=[N+]=[N-])c3)c2C(=O)O)CO1`, the EC50 is, setting by setting: (protocol A) 1260 nM; (protocol B) 1220 nM.
